Data from ChEMBL document CHEMBL3885861, “Open TG-GATES”.

Species: Rattus norvegicus
Experiment: Open TG-GATES - Regimen: Single
Assay type: toxicity, organism-based, Sprague-Dawley
Parameters: regimen Single, gender Male, age 6 weeks
Conditions: in vivo, iv, route intravenous injection; for Ca / Cl / DBIL / GLC / IP / K / LDH / Na / PL / RALB / TBIL / TC / TG / TP / gamma-GTP / A/G / ALP / ALT / AST / BUN / CRE: tissue Plasma; for APTT / Fbg / Hb / Ht / MCH / MCHC / MCV / PT / Plat / RBC / Ret / WBC: tissue Blood; for KIDNEY_L / KIDNEY_R / KIDNEY_TOTAL: tissue Kidney; for LIVER: tissue Liver
[1] = 3 mg/kg, 24 h, dose level Middle
[2] = 10 mg/kg, 24 h, dose level High

With `C[C@@H]1C[C@@H]([C@H](O)CC2CC(=O)NC(=O)C2)C(=O)[C@@H](C)C1` [CYCLOHEXIMIDE] the Ca [1] was 9.8 mg/dL, the Cl [1] was 107.6 meq/L and the DBIL [1] was 0.004 mg/dL. For the same molecule, the GLC [1] was 177 mg/dL, the IP [1] was 7.3 mg/dL and the K [1] was 4.4 meq/L. For the same molecule, the LDH [1] was 231 IU/L, the Na [1] was 138.8 meq/L and the PL [1] was 74 mg/dL. It also gave an RALB [1] of 2.4 g/dL, a TBIL [1] of 0.028 mg/dL and a TC [1] of 38.4 mg/dL. The TG [1] was 80 mg/dL, the TP [1] was 4.2 g/dL and the gamma-GTP [1] was 1.6 IU/L. For the same molecule, the TERMINAL_BW (10 mg/kg, 3 h, dose level High) was 216.7 g, the APTT (10 mg/kg, 3 h, dose level High) was 24.3 s and the Fbg (10 mg/kg, 3 h, dose level High) was 301 mg/dL. The Hb (10 mg/kg, 3 h, dose level High) was 15.2 g/dL, the Ht (10 mg/kg, 3 h, dose level High) was 47.2% and the MCH (10 mg/kg, 3 h, dose level High) was 21 pg. It also gave an MCHC (10 mg/kg, 3 h, dose level High) of 32.3%, an MCV (10 mg/kg, 3 h, dose level High) of 65.2 fL and a PT (10 mg/kg, 3 h, dose level High) of 18.5 s. It also gave a Plat (10 mg/kg, 3 h, dose level High) of 133.4 x10_4/uL, an RBC (10 mg/kg, 3 h, dose level High) of 726.4 x10_4/ul and a Ret (10 mg/kg, 3 h, dose level High) of 9.6%. For the same molecule, the WBC (10 mg/kg, 3 h, dose level High) was 375 x10_2/uL, the KIDNEY_L (10 mg/kg, 3 h, dose level High) was 1 g and the KIDNEY_R (10 mg/kg, 3 h, dose level High) was 1 g. It also gave a KIDNEY_TOTAL (10 mg/kg, 3 h, dose level High) of 2 g, an LIVER (10 mg/kg, 3 h, dose level High) of 9.2 g and an A/G (10 mg/kg, 3 h, dose level High) of 1.3. For the same molecule, the ALP (10 mg/kg, 3 h, dose level High) was 1467 IU/L, the ALT (10 mg/kg, 3 h, dose level High) was 74 IU/L and the AST (10 mg/kg, 3 h, dose level High) was 314.6 IU/L. The BUN (10 mg/kg, 3 h, dose level High) was 41.4 mg/dL, the CRE (10 mg/kg, 3 h, dose level High) was 0.1 mg/dL and the Ca (10 mg/kg, 3 h, dose level High) was 9.8 mg/dL. The Cl (10 mg/kg, 3 h, dose level High) was 109 meq/L, the DBIL (10 mg/kg, 3 h, dose level High) was 0.006 mg/dL and the GLC (10 mg/kg, 3 h, dose level High) was 334.2 mg/dL. It also gave an IP (10 mg/kg, 3 h, dose level High) of 13.4 mg/dL, a K (10 mg/kg, 3 h, dose level High) of 5.1 meq/L and an LDH (10 mg/kg, 3 h, dose level High) of 1625.2 IU/L. For the same molecule, the Na (10 mg/kg, 3 h, dose level High) was 140 meq/L, the PL (10 mg/kg, 3 h, dose level High) was 82.4 mg/dL and the RALB (10 mg/kg, 3 h, dose level High) was 3 g/dL. The TBIL (10 mg/kg, 3 h, dose level High) was 0.014 mg/dL, the TC (10 mg/kg, 3 h, dose level High) was 63.8 mg/dL and the TG (10 mg/kg, 3 h, dose level High) was 20 mg/dL. The TP (10 mg/kg, 3 h, dose level High) was 5.3 g/dL, the gamma-GTP (10 mg/kg, 3 h, dose level High) was 3.2 IU/L and the TERMINAL_BW (10 mg/kg, 6 h, dose level High) was 213.8 g. For the same molecule, the APTT (10 mg/kg, 6 h, dose level High) was 31.7 s, the Fbg (10 mg/kg, 6 h, dose level High) was 270.2 mg/dL and the Hb (10 mg/kg, 6 h, dose level High) was 17.7 g/dL. It also gave a Ht (10 mg/kg, 6 h, dose level High) of 54.8%, an MCH (10 mg/kg, 6 h, dose level High) of 21.6 pg and an MCHC (10 mg/kg, 6 h, dose level High) of 32.3%. It also gave an MCV (10 mg/kg, 6 h, dose level High) of 66.8 fL, a PT (10 mg/kg, 6 h, dose level High) of 29.8 s and a Plat (10 mg/kg, 6 h, dose level High) of 131.6 x10_4/uL. It also gave an RBC (10 mg/kg, 6 h, dose level High) of 818.8 x10_4/ul, a Ret (10 mg/kg, 6 h, dose level High) of 8.7% and a WBC (10 mg/kg, 6 h, dose level High) of 396.9 x10_2/uL. The KIDNEY_L (10 mg/kg, 6 h, dose level High) was 1 g, the KIDNEY_R (10 mg/kg, 6 h, dose level High) was 1 g and the KIDNEY_TOTAL (10 mg/kg, 6 h, dose level High) was 2 g. For the same molecule, the LIVER (10 mg/kg, 6 h, dose level High) was 7.9 g, the A/G (10 mg/kg, 6 h, dose level High) was 1.1 and the ALP (10 mg/kg, 6 h, dose level High) was 1518.4 IU/L. It also gave an ALT (10 mg/kg, 6 h, dose level High) of 76.2 IU/L, an AST (10 mg/kg, 6 h, dose level High) of 315.8 IU/L and a BUN (10 mg/kg, 6 h, dose level High) of 69.4 mg/dL. It also gave a CRE (10 mg/kg, 6 h, dose level High) of 0.2 mg/dL, a Ca (10 mg/kg, 6 h, dose level High) of 7.2 mg/dL and a Cl (10 mg/kg, 6 h, dose level High) of 108.8 meq/L. The DBIL (10 mg/kg, 6 h, dose level High) was 0.002 mg/dL, the GLC (10 mg/kg, 6 h, dose level High) was 250.6 mg/dL and the IP (10 mg/kg, 6 h, dose level High) was 16.5 mg/dL. The K (10 mg/kg, 6 h, dose level High) was 6 meq/L, the LDH (10 mg/kg, 6 h, dose level High) was 1124 IU/L and the Na (10 mg/kg, 6 h, dose level High) was 138.8 meq/L. For the same molecule, the PL (10 mg/kg, 6 h, dose level High) was 65 mg/dL, the RALB (10 mg/kg, 6 h, dose level High) was 2.8 g/dL and the TBIL (10 mg/kg, 6 h, dose level High) was 0.002 mg/dL. The TC (10 mg/kg, 6 h, dose level High) was 39 mg/dL, the TG (10 mg/kg, 6 h, dose level High) was 20.2 mg/dL and the TP (10 mg/kg, 6 h, dose level High) was 5.3 g/dL. It also gave a gamma-GTP (10 mg/kg, 6 h, dose level High) of 3.8 IU/L, a TERMINAL_BW (10 mg/kg, 9 h, dose level High) of 206.3 g and an APTT (10 mg/kg, 9 h, dose level High) of 47.2 s. The Fbg (10 mg/kg, 9 h, dose level High) was 228.4 mg/dL, the Hb (10 mg/kg, 9 h, dose level High) was 18.2 g/dL and the Ht (10 mg/kg, 9 h, dose level High) was 56.4%. The MCH (10 mg/kg, 9 h, dose level High) was 21.7 pg, the MCHC (10 mg/kg, 9 h, dose level High) was 32.3% and the MCV (10 mg/kg, 9 h, dose level High) was 67.4 fL. For the same molecule, the PT (10 mg/kg, 9 h, dose level High) was 40.1 s, the Plat (10 mg/kg, 9 h, dose level High) was 112.8 x10_4/uL and the RBC (10 mg/kg, 9 h, dose level High) was 836.4 x10_4/ul. The Ret (10 mg/kg, 9 h, dose level High) was 8.9%, the WBC (10 mg/kg, 9 h, dose level High) was 386.2 x10_2/uL and the KIDNEY_L (10 mg/kg, 9 h, dose level High) was 1.1 g. For the same molecule, the KIDNEY_R (10 mg/kg, 9 h, dose level High) was 1.1 g, the KIDNEY_TOTAL (10 mg/kg, 9 h, dose level High) was 2.1 g and the LIVER (10 mg/kg, 9 h, dose level High) was 7.9 g. It also gave an A/G (10 mg/kg, 9 h, dose level High) of 1.4, an ALP (10 mg/kg, 9 h, dose level High) of 1345.4 IU/L and an ALT (10 mg/kg, 9 h, dose level High) of 87.8 IU/L. For the same molecule, the AST (10 mg/kg, 9 h, dose level High) was 291.8 IU/L, the BUN (10 mg/kg, 9 h, dose level High) was 94.4 mg/dL and the CRE (10 mg/kg, 9 h, dose level High) was 0.3 mg/dL. The Ca (10 mg/kg, 9 h, dose level High) was 6.6 mg/dL, the Cl (10 mg/kg, 9 h, dose level High) was 109 meq/L and the DBIL (10 mg/kg, 9 h, dose level High) was 0.0125 mg/dL. The GLC (10 mg/kg, 9 h, dose level High) was 215.2 mg/dL, the IP (10 mg/kg, 9 h, dose level High) was 17.4 mg/dL and the K (10 mg/kg, 9 h, dose level High) was 6.6 meq/L. For the same molecule, the LDH (10 mg/kg, 9 h, dose level High) was 1399 IU/L, the Na (10 mg/kg, 9 h, dose level High) was 136 meq/L and the PL (10 mg/kg, 9 h, dose level High) was 69.6 mg/dL. The RALB (10 mg/kg, 9 h, dose level High) was 2.9 g/dL, the TBIL (10 mg/kg, 9 h, dose level High) was 0.01 mg/dL and the TC (10 mg/kg, 9 h, dose level High) was 34.4 mg/dL. It also gave a TG (10 mg/kg, 9 h, dose level High) of 61.4 mg/dL, a TP (10 mg/kg, 9 h, dose level High) of 5.2 g/dL and a gamma-GTP (10 mg/kg, 9 h, dose level High) of 3 IU/L. The TERMINAL_BW [2] was 198.6 g, the APTT [2] was 70.4 s and the Fbg [2] was 149.5 mg/dL. It also gave a Hb [2] of 16.4 g/dL, a Ht [2] of 49.4% and an MCH [2] of 20.9 pg. It also gave an MCHC [2] of 33.3%, an MCV [2] of 62.8 fL and a PT [2] of 35.1 s. The Plat [2] was 81.8 x10_4/uL, the RBC [2] was 784.5 x10_4/ul and the Ret [2] was 7.3%. The WBC [2] was 413.2 x10_2/uL, the KIDNEY_L [2] was 1 g and the KIDNEY_R [2] was 1 g. The KIDNEY_TOTAL [2] was 2 g, the LIVER [2] was 8 g and the A/G [2] was 1.3. For the same molecule, the ALP [2] was 903.5 IU/L, the ALT [2] was 57.5 IU/L and the AST [2] was 192 IU/L. The BUN [2] was 106 mg/dL, the CRE [2] was 0.3 mg/dL and the Ca [2] was 7 mg/dL. For the same molecule, the Cl [2] was 112 meq/L, the DBIL [2] was 0.02 mg/dL and the GLC [2] was 134 mg/dL. The IP [2] was 13.4 mg/dL, the K [2] was 5.3 meq/L and the LDH [2] was 1196.5 IU/L. For the same molecule, the Na [2] was 141.5 meq/L, the PL [2] was 80 mg/dL and the RALB [2] was 2.5 g/dL. For the same molecule, the TBIL [2] was 0.045 mg/dL, the TC [2] was 59 mg/dL and the TG [2] was 66.5 mg/dL. The TP [2] was 4.5 g/dL and the gamma-GTP [2] was 4 IU/L.
